Assay results taken from patent US12178840B2, “Method and compositions comprising a CT20 peptide” (UNIVERSITY OF CENTRAL FLORIDA RESEARCH FOUNDATION, INC., priority 2014, dated 2024).
Residues, ends and D or L forms follow the SMILES beside them.

Experiments:
[1] = system: MDA-MB-231 subcutaneous tumors; experiment: Tumor growth in mice bearing subcutaneous MDA-MB-231 tumors, nanoparticle treatment; type: in vivo
Text: Referring to FIG. 2A, the graph summarizes the results with FOL-NPs that were empty, contained Doxorubicin (DOX), or CT20, and are compared to COOH-NPs with CT20. Referring to FIG. 2B, representative ultrasound data is shown from mice treated with PBS or FOL-CT20-NPs. Arrows indicate treatment times. *p<0.05.
To test the ability of CT20 to inhibit tumor growth, HBPE-NPs were modified with folate (FOL) to target the folate receptor (FR) (Boohaker, R. J., et al. (2012) Mol. Pharm. 7, 2080-2093; Lee, M. W., et al. (2014) Cell Death Dis. 5). FR targeting enabled concentration of the HBPE-NPs in murine tumors during systemic delivery. FIG. 2 is a representative animal experiment in which MDA-MB-231 cells were used to form subcutaneous tumors. Mice (n=5) were treated with two subcutaneous injections of nanoparticles (2 mg/kg/dose) over a five week period. […] Referring to FIG. 2B, representative ultrasound data is shown from mice treated with PBS or FOL-CT20-NPs. Arrows indicate treatment times. *p<0.05.

CCTβ in MCF-10A cells = biological target: T1, CCTβ in MCF-10A cells (Homo sapiens, UniProt P78371); experiment: In-cell pull down (CT20p-biotin in HBPE-nanoparticles), blot for CCTβ; type: cell-based; settings: whole cell lysates
T1 construct: delivered to viable MDA-MB-231 and MCF-10A cells, followed by gentle cell lysis; endogenous in cells; host or cells: MCF-10A (untransfected)
Protocol: (§1) Pull down experiments: Lysate pull-downs were performed with 200 ug cell lysate, obtained by douncing as described above. Lysates were pre-cleared with streptavidin-agarose beads (Pierce), then incubated with […] of CT20-Biotin or biotin for 3 hours at room temperature, followed by overnight incubation at 4° C. with streptavidin-agarose beads. Beads were washed thoroughly with wash buffer (25 mM Tris, 150 mM NaCl, 0.1% NP40, pH7.4), then heated in 4× loading buffer (Invitrogen) for analysis by SDS-PAGE. Mass spectrometric analysis was performed by Moffit Cancer Center (Tampa, FL). Mass spectrometry results presented are of proteins with at least two unique peptides identified, and that were not recovered with biotin-only pull down. In-cell pull downs were performed by first delivering CT20p-Biotin encapsulated in nanoparticles to viable cells at a dose of 75 μg/mL for varying lengths of time. Following treatment, cells were collected and lysed by douncing. 200 ug of cell lysate were then incubated with streptavidin-agarose beads overnight at 4° C., and pull-down was completed as described above. […]
(§2) Because pull downs performed in cell lysates may emphasize non-specific protein interactions, we designed an in-cell pull down assay to better reflect interactions in the intracellular environment. […] Indeed, no pull down was detected with DiI-loaded nanoparticles.

CCTβ in MDA-MB-231 cells = biological target: T2, CCTβ in MDA-MB-231 cells (Homo sapiens, UniProt P78371); experiment: as above; type: cell-based; settings: whole cell lysates
T2 construct: delivered to viable MDA-MB-231 and MCF-10A cells, followed by gentle cell lysis; endogenous in cells; host or cells: MDA-MB-231
Protocol: as §1, §2

MDA-MB-231 cells = experiment: Migration assay (Oris exclusion zone); type: cell-based, human; settings: 24 hours treatment, 10 hours migration
Protocol: Migration assay: The Oris cell migration assembly kit (Platypus Technologies) was used. Cells were stained with CellTrace Violet (Life Technologies) according to manufacturer's protocol. Stoppers were placed in wells of a 96-well plate before cells were seeded at a density of 30,000 cells per well. For experiments involving CT20p treatment, treatments with CT20p were began 18 hours following seeding and allowed to continue for 24 hours. Treatments were done in quadruplicate. At the end of the treatment period, stoppers were removed to create an exclusion zone that the cells would migrate into. MDA-MB-231 cells were allowed to migrate for 10 hours. MCF-10A and MCF-10A EMT cells were allowed to migrate for 20 hours. Following the migration period, fluorescent images were obtained using a Plate Runner HD (Trophos). […] Images were analyzed by ImageJ software (NIH) by using the wand tool to automatically define and measure the migration zone. % closure was calculated as [(pre migration area−migration area)/pre migration area]×100.
Observations on the effects of CT20p on breast cancer cells include loss of actin distribution throughout the cell, especially in the filapodia (FIG. 3C). […] Immediately following removal of the stoppers, the pre-migration area can be determined. […] After quantification of the areas as described in Materials & Methods, % closure was calculated for each condition (FIG. 11B). […]

CC[C@H](C)[C@H](NC(=O)[C@@H](NC(=O)[C@H](CC(C)C)NC(=O)[C@H](CO)NC(=O)[C@H](C)NC(=O)[C@@H](NC(=O)[C@H](CC(C)C)NC(=O)[C@@H](NC(=O)CNC(=O)[C@H](C)NC(=O)[C@@H](NC(=O)[C@H](Cc1ccccc1)NC(=O)[C@@H](NC(=O)[C@@H](NC(=O)[C@@H](NC(C)=O)C(C)C)[C@@H](C)O)[C@@H](C)CC)C(C)C)C(C)C)[C@@H](C)O)[C@@H](C)O)C(=O)N[C@@H](Cc1c[nH]c2ccccc12)C(=O)N[C@@H](CCCCN)C(=O)N[C@@H](CCCCN)C(=O)N[C@@H](CCSC)C(=O)NCC(N)=O [CT20] (Ac-VTIFVAGVLTASLTIWKKMG-NH2)
Effectiveness compared with Doxorubicin ([1]; CT20 delivered in HBPE-NPs): as effective, if not more, than drugs such as Doxorubicin
Inhibition of tumor growth ([1]; two subcutaneous injections of nanoparticles (2 mg/kg/dose) over five weeks): caused tumor regression
Effect on total CCTβ protein levels (CCTβ in MCF-10A cells): does not affect
Effect on total CCTβ protein levels (CCTβ in MDA-MB-231 cells): does not affect
Effect on migration (% closure of exclusion zone) (MDA-MB-231 cells; 75 μg/mL): significantly impaired movement
Effect on migration (% closure of exclusion zone) (MDA-MB-231 cells; 150 μg/mL): nearly eliminated
